From PubChem BioAssay AID1963420 (Molecular Pharmacology Branch, DTP, NCI, 2024)

Tested on: 494315-158-R-J1-PDC complex spheroid growth, percent test/control
Experiment: Anticancer human tumor 494315-158-R-J1-PDC patient-derived soft tissue sarcoma cell line growth inhibition [Asc]
Settings: for IC50: curve of first compound; for viability, T/C: stronger effect = lower value
Summary of the method: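 Spheroid model: tumor line + HUVEC + hMSC. Single agents and combinations; top conc. at/near clinical Cmax (10 microM if undetermined), half-log dilutions. DMSO stocks at 800-fold test concentration.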

[1] = second compound 0.03 µM, first compound 0.0316 µM
[2] = second compound 0.03 µM, first compound 0.1 µM
[3] = second compound 0.03 µM, first compound 0.316 µM
[4] = second compound 0.03 µM, first compound 1 µM
[5] = second compound 0.0949 µM, first compound 0.0316 µM
[6] = second compound 0.0949 µM, first compound 0.1 µM
[7] = second compound 0.0949 µM, first compound 0.316 µM
[8] = second compound 0.0949 µM, first compound 1 µM
[9] = second compound 0.3 µM, first compound 0.0316 µM
[10] = second compound 0.3 µM, first compound 0.1 µM
[11] = second compound 0.3 µM, first compound 0.316 µM
[12] = second compound 0.3 µM, first compound 1 µM
[13] = second compound 0.949 µM, first compound 0.0316 µM
[14] = second compound 0.949 µM, first compound 0.1 µM
[15] = second compound 0.949 µM, first compound 0.316 µM
[16] = second compound 0.949 µM, first compound 1 µM
[17] = second compound 3 µM, first compound 0.0316 µM
[18] = second compound 3 µM, first compound 0.1 µM
[19] = second compound 3 µM, first compound 0.316 µM
[20] = second compound 3 µM, first compound 1 µM
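Also: compound exposure lasted seven days after spheroids formed for three days.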

## C#Cc1c(F)ccc2cc(O)cc(-c3ncc4c(N5CC6CCC(C5)N6)nc(OCC56CCCN5CC(F)C6)nc4c3F)c12 (stereo not given) + CCN1C(C(=O)NC23CCC(C(=O)O)(CC2)CC3)C(c2cccc(Cl)c2F)C2(C(=O)Nc3cc(Cl)ccc32)C12CCCCC2
Second compound 0.03 µM
  IC50: > 10000 nM
Second compound 0.0949 µM
  IC50: > 10000 nM
Second compound 0.3 µM
  IC50: > 10000 nM
Second compound 0.949 µM
  IC50: > 10000 nM
Second compound 3 µM
  IC50: > 10000 nM
[1]
  viability, T/C: 94.3%
[2]
  viability, T/C: 105%
[3]
  viability, T/C: 116%
[4]
  viability, T/C: 94.5%
Second compound 0.03 µM, first compound 3.16 µM
  viability, T/C: 108%
Second compound 0.03 µM, first compound 10 µM
  viability, T/C: 94.6%
[5]
  viability, T/C: 89.9%
[6]
  viability, T/C: 80.4%
[7]
  viability, T/C: 98.2%
[8]
  viability, T/C: 87.4%
Second compound 0.0949 µM, first compound 3.16 µM
  viability, T/C: 90.5%
Second compound 0.0949 µM, first compound 10 µM
  viability, T/C: 71.4%
[9]
  viability, T/C: 95.1%
[10]
  viability, T/C: 102%
[11]
  viability, T/C: 102%
[12]
  viability, T/C: 103%
Second compound 0.3 µM, first compound 3.16 µM
  viability, T/C: 108%
Second compound 0.3 µM, first compound 10 µM
  viability, T/C: 75.9%
[13]
  viability, T/C: 85.1%
[14]
  viability, T/C: 100%
[15]
  viability, T/C: 107%
[16]
  viability, T/C: 83.8%
Second compound 0.949 µM, first compound 3.16 µM
  viability, T/C: 110%
Second compound 0.949 µM, first compound 10 µM
  viability, T/C: 86.2%
[17]
  viability, T/C: 89.5%
[18]
  viability, T/C: 91.5%
[19]
  viability, T/C: 89%
[20]
  viability, T/C: 107%
Second compound 3 µM, first compound 3.16 µM
  viability, T/C: 100%
Second compound 3 µM, first compound 10 µM
  viability, T/C: 85.6%

## CNC(C)C(=O)NC1CN(S(=O)(=O)c2cccc(S(=O)(=O)N3CCC4CCC(C(=O)NC(c5ccccc5)c5ccccc5)N4C(=O)C(NC(=O)C(C)NC)C3)c2)CCC2CCC(C(=O)NC(c3ccccc3)c3ccccc3)N2C1=O (stereo not given) + CCN1C(C(=O)NC23CCC(C(=O)O)(CC2)CC3)C(c2cccc(Cl)c2F)C2(C(=O)Nc3cc(Cl)ccc32)C12CCCCC2
Second compound 0.03 µM
  IC50: 42.3 nM
Second compound 0.0949 µM
  IC50: 38.1 nM
Second compound 0.3 µM
  IC50: 41.1 nM
Second compound 0.949 µM
  IC50: 83.4 nM
Second compound 3 µM
  IC50: 36.7 nM
Second compound 0.03 µM, first compound 0.00316 µM
  viability, T/C: 87.4%
Second compound 0.03 µM, first compound 0.01 µM
  viability, T/C: 65.2%
[1]
  viability, T/C: 54%
[2]
  viability, T/C: 39.5%
[3]
  viability, T/C: 43.4%
[4]
  viability, T/C: 31.9%
Second compound 0.0949 µM, first compound 0.00316 µM
  viability, T/C: 66.8%
Second compound 0.0949 µM, first compound 0.01 µM
  viability, T/C: 72.6%
[5]
  viability, T/C: 45.8%
[6]
  viability, T/C: 42%
[7]
  viability, T/C: 31.1%
[8]
  viability, T/C: 26.3%
Second compound 0.3 µM, first compound 0.00316 µM
  viability, T/C: 70.9%
Second compound 0.3 µM, first compound 0.01 µM
  viability, T/C: 63.6%
[9]
  viability, T/C: 51.9%
[10]
  viability, T/C: 43.9%
[11]
  viability, T/C: 36.7%
[12]
  viability, T/C: 38.5%
Second compound 0.949 µM, first compound 0.00316 µM
  viability, T/C: 71%
Second compound 0.949 µM, first compound 0.01 µM
  viability, T/C: 62.3%
[13]
  viability, T/C: 60.6%
[14]
  viability, T/C: 49.2%
[15]
  viability, T/C: 36.7%
[16]
  viability, T/C: 34.4%
Second compound 3 µM, first compound 0.00316 µM
  viability, T/C: 67.6%
Second compound 3 µM, first compound 0.01 µM
  viability, T/C: 61.7%
[17]
  viability, T/C: 51.2%
[18]
  viability, T/C: 41.1%
[19]
  viability, T/C: 28.4%
[20]
  viability, T/C: 31.4%

## Cc1nc(N2CCC3(CC2)COC(C)C3N)c(CO)nc1Sc1ccnc(N)c1Cl (stereo not given) + CCN1C(C(=O)NC23CCC(C(=O)O)(CC2)CC3)C(c2cccc(Cl)c2F)C2(C(=O)Nc3cc(Cl)ccc32)C12CCCCC2
Second compound 0.03 µM
  IC50: > 3000 nM
Second compound 0.0949 µM
  IC50: 1430 nM
Second compound 0.3 µM
  IC50: 915 nM
Second compound 0.949 µM
  IC50: 601 nM
Second compound 3 µM
  IC50: 718 nM
Second compound 0.03 µM, first compound 0.00949 µM
  viability, T/C: 102%
Second compound 0.03 µM, first compound 0.03 µM
  viability, T/C: 90.3%
Second compound 0.03 µM, first compound 0.0949 µM
  viability, T/C: 70.8%
Second compound 0.03 µM, first compound 0.3 µM
  viability, T/C: 64.2%
Second compound 0.03 µM, first compound 0.949 µM
  viability, T/C: 51.5%
Second compound 0.03 µM, first compound 3 µM
  viability, T/C: 58.4%
Second compound 0.0949 µM, first compound 0.00949 µM
  viability, T/C: 83.8%
Second compound 0.0949 µM, first compound 0.03 µM
  viability, T/C: 83.6%
Second compound 0.0949 µM, first compound 0.0949 µM
  viability, T/C: 72%
Second compound 0.0949 µM, first compound 0.3 µM
  viability, T/C: 69%
Second compound 0.0949 µM, first compound 0.949 µM
  viability, T/C: 59.5%
Second compound 0.0949 µM, first compound 3 µM
  viability, T/C: 36.4%
Second compound 0.3 µM, first compound 0.00949 µM
  viability, T/C: 79.6%
Second compound 0.3 µM, first compound 0.03 µM
  viability, T/C: 89.9%
Second compound 0.3 µM, first compound 0.0949 µM
  viability, T/C: 81.7%
Second compound 0.3 µM, first compound 0.3 µM
  viability, T/C: 68.3%
Second compound 0.3 µM, first compound 0.949 µM
  viability, T/C: 50.4%
Second compound 0.3 µM, first compound 3 µM
  viability, T/C: 37.1%
Second compound 0.949 µM, first compound 0.00949 µM
  viability, T/C: 89.3%
Second compound 0.949 µM, first compound 0.03 µM
  viability, T/C: 87.2%
Second compound 0.949 µM, first compound 0.0949 µM
  viability, T/C: 76.9%
Second compound 0.949 µM, first compound 0.3 µM
  viability, T/C: 63.4%
Second compound 0.949 µM, first compound 0.949 µM
  viability, T/C: 40%
Second compound 0.949 µM, first compound 3 µM
  viability, T/C: 37.6%
Second compound 3 µM, first compound 0.00949 µM
  viability, T/C: 80.9%
Second compound 3 µM, first compound 0.03 µM
  viability, T/C: 86%
Second compound 3 µM, first compound 0.0949 µM
  viability, T/C: 78.2%
Second compound 3 µM, first compound 0.3 µM
  viability, T/C: 62.2%
Second compound 3 µM, first compound 0.949 µM
  viability, T/C: 47.1%
Second compound 3 µM, first compound 3 µM
  viability, T/C: 32.5%
